Test results taken from US7671068B2, “N-(alkoxyalkyl) carbamoyl-substituted 6-phenyl-benzonaphthyridine derivatives and their use as PDE ¾ inhibitors” (NYCOMED GmbH, priority 2004, dated 2010).

What was measured:
[1] = system: PDE4 (cAMP-specific) in the cytosol of human polymorphonuclear leukocytes (PMNL); test: PDE4 inhibition, Method A (radioactive PDE assay after Thompson et al.); type: biochemical; details: cAMP substrate, motapizone 1 μM
Description: (§1) The PDE activity was determined according to Thompson et al. (Adv Cycl Nucl Res 10: 69-92, 1979) with some modifications (Bauer and Schwabe, Naunyn-Schmiedeberg's Arch Pharmacol 311: 193-198, 1980). The test samples contained 20 mM Tris (pH 7.4), 5 mM MgCl2, 0.5 μM CAMP or cGMP, [^3H]cAMP or [^3H]cGMP (about 30 000 cpm/sample), the PDE isoenzyme-specific additives described in greater detail below, the indicated concentrations of inhibitor and an aliquot of the enzyme solution in a total sample volume of 200 μl. Dilution series of the compounds according to the invention were prepared in DMSO and further diluted in the samples [1:100 (v/v)], to give the desired end concentration of the inhibitors at a DMSO concentration of 1% (v/v), which for its part has only a minute effect on PDE activity.
(§2) After preincubation at 37° C. for 5 minutes, the reaction was started by addition of the substrate (CAMP or cGMP). The samples were incubated at 37° C. for a further 15 min. The reaction was terminated by addition of 50 μl 0.2 N HCl. After cooling on ice for 10 minutes and addition of 25 μg 5′-nucleotidase (snake venom from Crotalus atrox), the mixture was again incubated at 37° C. for 10 min and the samples were then applied to QAE Sephadex A-25 columns (sample volume 1 ml). The columns were eluted with 2 ml of 30 mM ammonium formate (pH 6.0). The radioactivity of the eluate was measured and corrected by the corresponding blank values (measured in the presence of denatured protein); the blank values were less than 5% of the total radioactivity. In no case did the proportion of hydrolyzed nucleotide exceed 30% of the original substrate concentration.
PDE4 (cAMP-specific) was investigated in the cytosol of human polymorphonuclear leukocytes (PMNL) [isolated from leukocyte concentrates, see Schudt et al., Arch Pharmacol 1991: 344, 682-690] using cAMP as substrate. The PDE3 inhibitor motapizone (1 μM) was used to suppress the PDE3 activity emanating from contaminated platelets.
(§3) The IC50 values were determined from the concentration-inhibition curves by nonlinear regression.
(§4) The inhibitory values of the compounds 1-16 and 22-24 have been determined according to Method A. The inhibitory values of the compounds 17-21 have been determined according to Method B.

[2] = target: T1, PDE3 (cGMP-inhibited) in homogenates of human platelets (Homo sapiens, UniProt Q14432); test: PDE3 inhibition, Method A (radioactive PDE assay after Thompson et al.); type: biochemical; details: read-out: PDE3 [−log IC50, mol/l] (converted)
T1 construct: investigated in homogenates of human platelets; from tissue; host or cells: homogenates of human platelets
Description: as §1, §2
PDE3 (cGMP-inhibited) was investigated in homogenates of human platelets (see Schudt et al., Biochem Pharmacol 1991: 42, 153-162) using CAMP or cGMP as substrate.
as §3, §4

T1 sequence (Q14432 whole entry): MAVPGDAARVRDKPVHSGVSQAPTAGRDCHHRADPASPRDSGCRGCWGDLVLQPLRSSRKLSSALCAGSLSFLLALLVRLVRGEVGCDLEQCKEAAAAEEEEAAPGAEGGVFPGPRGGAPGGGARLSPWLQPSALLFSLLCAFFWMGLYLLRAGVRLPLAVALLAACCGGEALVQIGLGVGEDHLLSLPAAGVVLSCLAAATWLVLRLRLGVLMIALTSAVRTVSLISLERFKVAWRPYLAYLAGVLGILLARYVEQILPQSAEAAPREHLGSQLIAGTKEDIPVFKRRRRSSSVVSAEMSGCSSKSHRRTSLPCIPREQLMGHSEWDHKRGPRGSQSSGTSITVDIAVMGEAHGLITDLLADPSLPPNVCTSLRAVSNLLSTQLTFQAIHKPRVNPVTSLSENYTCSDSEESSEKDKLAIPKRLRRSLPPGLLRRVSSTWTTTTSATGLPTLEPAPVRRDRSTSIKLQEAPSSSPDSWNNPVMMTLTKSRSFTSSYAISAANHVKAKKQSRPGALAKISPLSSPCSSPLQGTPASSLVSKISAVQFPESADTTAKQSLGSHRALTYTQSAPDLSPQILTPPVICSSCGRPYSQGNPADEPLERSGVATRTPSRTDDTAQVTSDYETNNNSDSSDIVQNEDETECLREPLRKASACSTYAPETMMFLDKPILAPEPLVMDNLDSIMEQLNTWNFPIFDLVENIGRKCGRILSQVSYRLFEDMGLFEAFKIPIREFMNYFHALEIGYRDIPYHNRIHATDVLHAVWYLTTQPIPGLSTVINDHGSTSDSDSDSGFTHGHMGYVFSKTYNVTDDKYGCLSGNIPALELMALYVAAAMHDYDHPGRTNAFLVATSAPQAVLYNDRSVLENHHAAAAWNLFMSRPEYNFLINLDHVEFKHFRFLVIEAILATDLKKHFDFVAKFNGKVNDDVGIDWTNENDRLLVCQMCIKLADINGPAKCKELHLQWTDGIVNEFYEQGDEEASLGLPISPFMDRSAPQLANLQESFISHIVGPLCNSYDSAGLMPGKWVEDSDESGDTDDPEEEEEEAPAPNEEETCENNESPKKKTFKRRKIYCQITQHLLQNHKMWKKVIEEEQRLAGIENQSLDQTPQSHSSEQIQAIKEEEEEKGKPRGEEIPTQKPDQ

PDE4 [−log IC50, mol/l] [1] [mol/l] | IC50 [2] [nM] | Compound
8.9 | 100 | CCOc1cc2c(cc1OC)C(c1ccc(C(=O)N(C(C)C)C(C)CCOCc3ccccc3)cc1)=N[C@@H]1CCN(C)C[C@H]21 (mixture of isomers) [Compound 10, N-(3-Benzyloxy-1-methyl-propyl)-4-((4aR,10bS)-9-ethoxy-8-methoxy-2-methyl-1,2,3,4,4a,10b-hexahydro-benzo[c][1,6]naphthyridin-6-yl)-N-isopropyl-benzamide]
9.0 | 1000 | CCOc1cc2c(cc1OC)C(c1ccc(C(=O)NC(CC)COC)cc1)=N[C@@H]1CCN(C)C[C@H]21.Cl (mixture of isomers) [Compound 3, 4-((4aR,10bS)-9-Ethoxy-8-methoxy-2-methyl-1,2,3,4,4a,10b-hexahydro-benzo [c][1,6]naphthyridin-6-yl)-N-(1(rac)-methoxymethyl-propyl)-benzamide; hydrochloride]
 | 631 | CCOc1cc2c(cc1OC)C(c1ccc(C(=O)NCCCOC(C)C)cc1)=N[C@@H]1CCN(C)C[C@H]21.Cl [Compound 1, 4-(4aR,10bS)-9-Ethoxy-8-methoxy-2-methyl-1,2,3,4,4a,10b-hexahydro-benzo [c][1,6]naphthyridin-6-yl)-N-(3-isopropoxy-propyl)-benzamide; hydrochloride]
8.9 |  | CCOc1cc2c(cc1OC)C(c1ccc(C(=O)NCCCOC(C)C)cc1)=N[C@@H]1CCN(C)C[C@H]21.Cl [Compound 1]
8.5 | 1580 | CCOc1cc2c(cc1OC)C(c1ccc(C(=O)N[C@@H](C)COC)cc1)=N[C@@H]1CCN(C)C[C@H]21.Cl [Compound 2, 4-((4aR,10bS)-9-Ethoxy-8-methoxy-2-methyl-1,2,3,4,4a,10b-hexahydro-benzo [c][1,6]naphthyridin-6-yl)-N-((S)-2-methoxy-1-methyl-ethyl)-benzamide; hydrochloride]
8.4 | 794 | CCOCCCNC(=O)c1ccc(C2=N[C@@H]3CCN(C)C[C@@H]3c3cc(OCC)c(OC)cc32)cc1.Cl [Compound 4, 4-((4aR,10bS)-9-Ethoxy-8-methoxy-2-methyl-1,2,3,4,4a,10b-hexahydro-benzo [c][1,6]naphthyridin-6-yl)-N-(3-ethoxy-propyl)-benzamide; hydrochloride]
8.9 | 200 | CCOc1cc2c(cc1OC)C(c1ccc(C(=O)N(CC)CCOC)cc1)=N[C@@H]1CCN(C)C[C@H]21.Cl [Compound 5, 4-((4aR,10bS)-9-Ethoxy-8-methoxy-2-methyl-1,2,3,4,4a,10b-hexahydro-benzo [c][1,6]naphthyridin-6-yl)-N-ethyl-N-(2-methoxy-ethyl)-benzamide; hydrochloride]
9.2 | 126 | CCCN(CCOC)C(=O)c1ccc(C2=N[C@@H]3CCN(C)C[C@@H]3c3cc(OCC)c(OC)cc32)cc1.Cl [Compound 6, 4-((4aR,10bS)-9-Ethoxy-8-methoxy-2-methyl-1,2,3,4,4a,10b-hexahydro-benzo [c][1,6]naphtpyridin-6-yl)-N-(2-methoxy-ethyl)-N-propyl-benzamide; hydrochloride]
8.8 | 79.4 | CCOc1cc2c(cc1OC)C(c1ccc(C(=O)N(CCOC)C(C)C)cc1)=N[C@@H]1CCN(C)C[C@H]21.Cl [Compound 7, 4-((4aR,10bS)-9-Ethoxy-8-methoxy-2-methyl-1,2,3,4,4a,10b-hexahydro-benzo [c][1,6]naphthyridin-6-yl)-N-isopropyl-N-(2-methoxy-ethyl)-benzamide; hydrochloride]
9.8 | 31.6 | CCOc1cc2c(cc1OC)C(c1ccc(C(=O)N(C(C)C)[C@H](C)COCc3ccccc3)cc1)=N[C@@H]1CCN(C)C[C@H]21 [Compound 8, N—((R)-2-Benzyloxy-1-methyl-ethyl)-4-((4aR,10bS)-9-ethoxy-8-methoxy-2-methyl-1,2,3,4,4a,10b-hexahydro-benzo[c][1,6]naphthyridin-6-yl)-N-isopropyl-benzamide]
9.8 | 15.8 | CCOc1cc2c(cc1OC)C(c1ccc(C(=O)N(C(C)C)[C@@H](C)COCc3ccccc3)cc1)=N[C@@H]1CCN(C)C[C@H]21 [Compound 9, N—((S)-2-Benzyloxy-1-methylethyl)-4-((4aR,10bS)-9-ethoxy-8-methoxy-2-methyl-1,2,3,4,4a,10b-hexahydro-benzo[c][1,6]naphthyridin-6-yl)-N-isopropyl-benzamide]
9.0 | 79.4 | CCOc1cc2c(cc1OC)C(c1ccc(C(=O)N(C(C)C)[C@@H](C)COC)cc1)=N[C@@H]1CCN(C)C[C@H]21.Cl [Compound 11, 4-((4aR,10bS)-9-Ethoxy-8-methoxy-2-methyl-1,2,3,4,4a,10b-hexahydro-benzo [c][1,6]naphthyridin-6-yl)-N-isopropyl-N-((S)-2-methoxy-1-methyl-ethyl)-benzamide; hydrochloride]
9.4 | 158 | CCOc1cc2c(cc1OC)C(c1ccc(C(=O)N(CCOC)C3CCCCC3)cc1)=N[C@@H]1CCN(C)C[C@H]21.Cl [Compound 12, N-Cyclohexyl-4-((4aR,10bS)-9-ethoxy-8-methoxy-2-methyl-1,2,3,4,4a,10b-hexahydro-benzo [c][1,6]naphthyridin-6-yl)-N-(2-methoxy-ethyl)-benzamide; hydrochloride]
9.9 | 200 | CCOc1cc2c(cc1OC)C(c1ccc(C(=O)N(CCCOC)C3CCCCC3)cc1)=N[C@@H]1CCN(C)C[C@H]21.Cl [Compound 13, N-Cyclohexyl-4-((4aR,10bS)-9-ethoxy-8-methoxy-2-methyl-1,2,3,4,4a,10b-hexahydro-benzo [c][1,6]naphthyridin-6-yl)-N-(3-methoxy-propyl)-benzamide; hydrochloride]
7.8 | 1000 | CCOc1cc2c(cc1OC)C(c1ccc(C(=O)NCCOC)cc1)=N[C@@H]1CCN(C)C[C@H]21.Cl [Compound 14, 4-((4aR,10bS)-9-Ethoxy-8-methoxy-2-methyl-1,2,3,4,4a,10b-hexahydro-benzo [c][1,6]naphthyridin-6-yl)-N-(2-methoxy-ethyl)-benzamide; hydrochloride]
8.0 | 251 | CCOc1cc2c(cc1OC)C(c1ccc(C(=O)N(C)CCOC)cc1)=N[C@@H]1CCN(C)C[C@H]21.Cl [Compound 15, 4-((4aR,10bS)-9-Ethoxy-8-methoxy-2-methyl-1,2,3,4,4a,10b-hexahydro-benzo [c][1,6]naphthyridin-6-yl)-N-(2-methoxy-ethyl)-N-methyl-benzamide; hydrochloride]
9.4 | 63.1 | CCOc1cc2c(cc1OC)C(c1ccc(C(=O)N(C)[C@H](COCc3ccccc3)CC(C)C)cc1)=N[C@@H]1CCN(C)C[C@H]21 [Compound 22, N—((S)-1-Benzyloxymethyl-3-methyl-butyl)-4-((4aR,10bS)-9-ethoxy-8-methoxy-2-methyl-1,2,3,4,4a,10b-hexahydro-benzo[c][1,6]naphthyridin-6-yl)-N-methyl-benzamide]
9.5 | 158 | CCOc1cc2c(cc1OC)C(c1ccc(C(=O)N(Cc3ccccc3)[C@@H](C)COCc3ccccc3)cc1)=N[C@@H]1CCN(C)C[C@H]21 [Compound 23, N-Benzyl-N-((S)-2-benzyloxy-1-methyl-ethyl)-4-((4aR,10bS)-9-ethoxy-8-methoxy-2-methyl-1,2,3,4,4a,10b-hexahydro-benzo[c][1,6]naphthyridin-6-yl)-benzamide]

Compound | PDE4 [−log IC50, mol/l] [1] [mol/l] | IC50 [2] [nM]
CCCCOCCCNC(=O)c1ccc(C2=N[C@@H]3CCN(C)C[C@@H]3c3cc(OCC)c(OC)cc32)cc1.Cl [Compound 16, N-(3-Butoxy-propyl)-4-((4aR,10bS)-9-ethoxy-8-methoxy-2-methyl-1,2,3,4,4a,10b-hexahydro-benzo [c][1,6]naphthyridin-6-yl)-benzamide; hydrochloride] | 8.5 | 398
